Test results taken from patent publication US20020013314A1, “3,4-dihydro-2H-benzo[1,4]oxazine inhibitors of factor Xa” (priority 2000, published 2002).

Key:
thrombin = thrombin (Homo sapiens, UniProt P00734); experiment: thrombin amidolytic assay (Chromozym TH)
Experimental: (§1) In the assays for thrombin, prothrombinase and factor Xa, a synthetic chromogenic substrate is added to a solution containing test compound and the enzyme of interest and the residual catalytic activity of that enzyme is determined spectrophotometrically. The IC50 of a compound is determined from the substrate turnover. […] The factor Xa and thrombin assays are performed at room temperature, in 0.02 M Tris·HCl buffer, pH 7.5, containing 0.15 M NaCl.

factor Xa = factor Xa (Homo sapiens, UniProt P00742); experiment: factor Xa amidolytic assay (chromogenic substrate S-2765)
Experimental: as §1

prothrombinase complex = prothrombinase complex (Homo sapiens, UniProt P00742); experiment: prothrombinase inhibition assay (plasma free system, Chromozym TH); type: biochemical
prothrombinase complex, sequence (P00742 41-179 limits assumed): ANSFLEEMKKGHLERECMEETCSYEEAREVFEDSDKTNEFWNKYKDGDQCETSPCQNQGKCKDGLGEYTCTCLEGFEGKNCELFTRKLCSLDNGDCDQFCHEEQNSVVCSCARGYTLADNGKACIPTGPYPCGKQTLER
prothrombinase complex, sequence (P00742 235-488 limits assumed): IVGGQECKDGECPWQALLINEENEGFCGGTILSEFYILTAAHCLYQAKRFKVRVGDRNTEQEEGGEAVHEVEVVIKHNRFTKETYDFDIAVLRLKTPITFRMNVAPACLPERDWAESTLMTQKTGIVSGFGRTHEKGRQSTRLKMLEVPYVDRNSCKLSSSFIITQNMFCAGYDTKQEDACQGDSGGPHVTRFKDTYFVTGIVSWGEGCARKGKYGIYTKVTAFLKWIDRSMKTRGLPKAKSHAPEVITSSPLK
prothrombinase complex, sequence (P12259 29-737 partner limits assumed): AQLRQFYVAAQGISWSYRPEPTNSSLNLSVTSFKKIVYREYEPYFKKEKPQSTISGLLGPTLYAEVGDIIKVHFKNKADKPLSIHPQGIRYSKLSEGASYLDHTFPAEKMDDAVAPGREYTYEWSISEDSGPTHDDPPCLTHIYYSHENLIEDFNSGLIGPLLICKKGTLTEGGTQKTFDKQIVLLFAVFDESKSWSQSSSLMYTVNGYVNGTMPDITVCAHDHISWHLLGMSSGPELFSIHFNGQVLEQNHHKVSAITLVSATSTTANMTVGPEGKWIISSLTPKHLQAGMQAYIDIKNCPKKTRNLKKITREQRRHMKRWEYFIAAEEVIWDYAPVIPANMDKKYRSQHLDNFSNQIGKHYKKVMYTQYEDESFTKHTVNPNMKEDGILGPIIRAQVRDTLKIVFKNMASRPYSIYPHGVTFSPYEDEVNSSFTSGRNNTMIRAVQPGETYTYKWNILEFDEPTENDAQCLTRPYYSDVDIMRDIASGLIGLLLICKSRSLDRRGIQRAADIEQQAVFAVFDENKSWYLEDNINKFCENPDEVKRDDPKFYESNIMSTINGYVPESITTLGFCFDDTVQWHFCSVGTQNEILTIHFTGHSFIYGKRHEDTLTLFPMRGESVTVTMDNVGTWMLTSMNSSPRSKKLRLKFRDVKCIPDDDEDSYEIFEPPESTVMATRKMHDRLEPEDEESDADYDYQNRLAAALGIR
prothrombinase complex, sequence (P12259 1574-2224 partner limits assumed): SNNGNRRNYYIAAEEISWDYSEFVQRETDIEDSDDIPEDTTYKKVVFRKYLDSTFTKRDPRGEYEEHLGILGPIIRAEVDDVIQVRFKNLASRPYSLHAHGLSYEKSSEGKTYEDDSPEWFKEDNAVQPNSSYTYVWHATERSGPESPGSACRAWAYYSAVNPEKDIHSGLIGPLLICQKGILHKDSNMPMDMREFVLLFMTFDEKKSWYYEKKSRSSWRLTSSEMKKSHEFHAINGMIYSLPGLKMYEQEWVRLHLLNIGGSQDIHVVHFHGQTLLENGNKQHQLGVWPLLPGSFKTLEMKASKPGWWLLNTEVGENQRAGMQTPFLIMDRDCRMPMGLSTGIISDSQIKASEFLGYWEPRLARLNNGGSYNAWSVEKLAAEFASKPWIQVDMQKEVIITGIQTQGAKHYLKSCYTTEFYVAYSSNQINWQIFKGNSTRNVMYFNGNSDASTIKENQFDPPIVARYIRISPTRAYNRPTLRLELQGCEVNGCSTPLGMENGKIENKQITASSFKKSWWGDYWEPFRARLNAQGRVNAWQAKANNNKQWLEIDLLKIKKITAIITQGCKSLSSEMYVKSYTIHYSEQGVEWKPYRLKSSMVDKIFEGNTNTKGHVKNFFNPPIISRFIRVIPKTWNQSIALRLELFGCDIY
Experimental: The prothrombinase inhibition assay is performed in a plasma free system with modifications to the method described by Sinha, U. et al., Thromb. […] Specifically, the activity of the prothrombinase complex is determined by measuring the time course of thrombin generation using the p-nitroanilide substrate Chromozym TH. […] Aliquots from the complex-inhibitor mixture are added to prothrombin (1 nM) and Chromozym TH (0.1 mM). […] Eight different concentrations of inhibitor are assayed in duplicate. A standard curve of thrombin generation by an equivalent amount of untreated complex is used for determination of percent inhibition.

[1] = Table 3, probe of regiochemistry

factor Xa, sequence (P00742 41-179 limits assumed): as the sequence (P00742 41-179 limits assumed) above
factor Xa, sequence (P00742 235-488 limits assumed): as the sequence (P00742 235-488 limits assumed) above

Compound	IC50 (thrombin)	IC50 (factor Xa)	IC50 (prothrombinase complex; [1])	IC50 (prothrombinase complex; Table 6, monoamidine)	IC50 (prothrombinase complex; Table 5)	IC50 (prothrombinase complex; Table 4)
Cc1cc(CN2C(=O)COc3cc(-c4ccccc4S(N)(=O)=O)ccc32)n(-c2cccc(C(=N)N)c2)n1 [Cmpd 38]	> 11 µM	> 11 µM		> 11000 nM		
CC(=N)N1CCC(Oc2ccc3c(c2)OCC(=O)N3Cc2ccc3ccc(C(=N)N)cc3c2)CC1 [Cmpd 24]	334 µM					
CC(=N)N1CCC(Oc2ccc3c(c2)OCC(=O)N3Cc2cc(-c3cccc(C(=N)N)c3)no2)CC1 [Cmpd 27]	250 µM	0.0524 µM				159 nM
N=C(N)c1ccc(C(=O)Nc2ccc3c(c2)OCC(=O)N3Cc2ccc3ccc(C(=N)N)cc3c2)cc1 [Cmpd 31]	204 µM	10.1 µM			67500 nM	
N=C(N)c1ccc2ccc(CN3C(=O)COc4cc(NS(=O)(=O)c5cccc6ncccc56)ccc43)cc2c1 [Cmpd 34]	109 µM	19.5 µM			364000 nM	
CC(=N)N1CCC(Oc2ccc3c(c2)OCC(=O)N3Cc2cc3ccc(C(=N)N)cc3n2C)CC1 [Cmpd 28]		0.002 µM				6.6 nM

The next lines start with results.

IC50 (thrombin)	IC50 (factor Xa)	IC50 (prothrombinase complex; [1])	IC50 (prothrombinase complex; Table 6, monoamidine)	IC50 (prothrombinase complex; Table 5)	Compound	IC50 (prothrombinase complex; Table 4)
5.37 µM	0.344 µM	934 nM			CC(=N)N1CCC(Oc2ccc3c(c2)N(Cc2cccc(-c4cccc(C(=N)N)c4)c2)C(=O)CO3)CC1 [Cmpd 25]	
8.7 µM	0.89 µM		3000 nM		N=C(N)c1cccc(-c2cccc(CN3C(=O)COc4ccc(-c5ccccc5S(N)(=O)=O)cc43)c2)c1 [Cmpd 37]	
81 µM	0.191 µM	352 nM			CC(=N)N1CCC(Oc2ccc3c(c2)N(Cc2ccc4ccc(C(=N)N)cc4c2)C(=O)CO3)CC1 [Cmpd 26]	
11 µM	0.0376 µM	214 nM			CC(=N)N1CCC(Oc2ccc3c(c2)OCC(=O)N3Cc2cccc(-c3cccc(C(=N)N)c3)c2)CC1 [Cmpd 23]	
34.5 µM	21.9 µM			55200 nM	N=C(N)c1ccc2ccc(CN3C(=O)COc4cc(NS(=O)(=O)c5ccccc5)ccc43)cc2c1 [Cmpd 32]	
83.7 µM	268 µM			98000 nM	N=C(N)c1ccc2ccc(CN3C(=O)COc4cc(NS(=O)(=O)c5ccc6cc(Br)ccc6c5)ccc43)cc2c1 [Cmpd 35]	
34.9 µM	38.2 µM			81000 nM	COc1ccc(S(=O)(=O)Nc2ccc3c(c2)OCC(=O)N3Cc2ccc3ccc(C(=N)N)cc3c2)cc1 [Cmpd 33]	
26.7 µM	0.068 µM		2000 nM		N=C(N)c1ccc2ccc(CN3C(=O)COc4ccc(-c5ccccc5S(N)(=O)=O)cc43)cc2c1 [Cmpd 36]	
